Holding throughout (assay type): cell-based
The test system of one data set is hair-related cells. The data set is described as follows: Test of isolated active substances using hair-related cells in an in vitro system. The text has this:
The 7′-fluoroeckol compound is disclosed in Korean Patent Application No. 10-2011-0000141. The present invention aims to find a dioxinodehydroeckol compound and an Ecklonia cava extract using an extraction method capable of improving hair growth effects.

For data set [1], the system named is human follicle dermal papilla cells. Kind of data set: Cell viability of human follicle dermal papilla cells (MTT assay). A general note: Tetrazolium dyes change colour on reduction, which living cells bring about.
Procedure: The cell viability of human follicle dermal papilla cells were measured using a 3-(4,5-dimethylthiazole-2-yl)-2,5-diphenyl-tetrazolium bromide [MTT] assay.
Specifically, 100 μL of cells were dispensed into each well of 96-well plates at a concentration of 1×10^6 cells/ml and cultured for 24 hours. A sample was prepared in a medium free of FBS and 1% penicillin/streptomycin at various concentrations, and the cells was treated with the sample and incubated for 24 hours. The cells were treated with an MTT solution (5 mg/mL) for 3 hours, and then the MTT was reduced and the medium was carefully removed such that the produced formazan was not removed. Then, 100 μL of dimethyl sulfoxide (DMSO) was dispensed into each well, and after 30 minutes, the absorbance at 570 nm was measured.
Data set [2] shares this test system. The data set is described as follows: Protein expression test (Western blotting) in human follicle dermal papilla cells. The settings on record: 0.1 μM, 24 hours. The protocol:
(§1) Human follicle dermal papilla cells were purchased from Promo Cell (Heidelberg, Germany). The cells were cultured in a ready-to-use HFDPC medium composed of a basal medium, FCS (fetal calf serum) and a supplement kit Promo Cell (Heidelberg, Germany) containing basal FGF and insulin. For subculture, a kit containing HBSS (HEPES buffered saline), trypsin/EDTA solution and neutralizing solution (Promo Cell, Heidelberg, Germany) was used. Human follicle dermal papilla cells at passages 4 to 6 were used in the test and cultured in a T-25 flask containing 5 ml of medium under the conditions of 37° C. and 5% CO2.
In order to examine the mechanisms of action of the purified extract of Ecklonia cava and the dioxinodehydroeckol compound on the proliferation of human follicle dermal papilla cells, Western blotting was carried out according to standard protocol.
Specifically, the cells were seeded into a 6-well medium together with a serum-free medium and cultured for 24 hours (1.0×10^6 cells/well). Then, the medium was replaced with a fresh medium, and the cells were treated with various concentrations of a sample for 1-24 hours. […] The cells were cultured with horseradish-peroxidase-conjugated secondary antibody at room temperature, and then immune-reactive protein was detected using an enhanced chemiluminescence (ECL) analysis kit according to the manufacturer's instruction. […]
In general terms: Immunoblotting shows a protein as a band on a membrane.

Data set [3] shares this test system. Kind of data set: mRNA expression (RT-PCR) in human follicle dermal papilla cells. The settings on record: 0.1 μM, 24 hours. The protocol:
as §1
In order to examine the mechanisms of action of the purified extract of Ecklonia cava and the dioxinodehydroeckol compound on the proliferation of human follicle dermal papilla cells, reverse transcription polymerase chain reaction (RT-PCR) was performed according to a standard protocol. Specifically, the cells were seeded into a 6-well plate together with a serum-free medium and cultured for 24 hours (1.0×10^6 cells/well). Then, the medium was replaced with a fresh medium, and the cells were treated with various concentrations of a test material for 24 hours and then lysed with TRIzol® (Invitrogen).

The test system of another data set is human hair tissue. The data set is described as follows: Evaluation of hair growth by culture of human hair tissue. The settings on record: 0.1 μM. The protocol:
Human hair tissue provided from Immunobiology Laboratory, Kyungpook National University, was used in the test and cultured in a CO2 incubator at 37° C. with Williams E media (Sigma, USA) containing 2 mM L-glutamin, 100 U/ml streptomycin and 10 ng/ml hydrocortisone. The tissue was cultured with various concentrations of the test material for 6 days, and the length of the hair tissue was measured at days 3 and 6.

Consider “7′-fluoroeckol [7′-fluoroeckol compound]”, for which the “influence on hair-related cells” value in the data set with hair-related cells is reported as “specifically influence hair-related cells”.

What is called cell viability is a read-out of living cells in per cent, often relative to untreated cells. The term viability denotes a read-out of living cells in per cent, often relative to untreated cells. With `Nc1cc(N2CCCCC2)nc(N)[n+]1[O-]` [Minoxidil, reference compound], the cell viability in data set [1] (1 μM, listed as minoidil) stood at 121%. Further, the viability at 1 µM in data set [1] (Homo sapiens, 1 μM) worked out at 119%.

On to `Oc1cc(O)c2oc3cc(O)c4oc5cc(O)cc(O)c5oc4c3oc2c1` [dioxinodehydroeckol], for which the viability at 0.1 µM in data set [1] (Homo sapiens, 0.1 μM, read-out: highest cell viability) worked out at 142%. Also, in data set [1] (concentration range of 0.001-5 μM, FIG. 1c), the “viability of the human follicle dermal papilla cells compared to untreated control” value is recorded as “significantly increased”. Moreover, in data set [2], the “expression level of BMP2/4 protein, increase compared to untreated control” value was found to be 1.8 times and the “expression level of β-catenin protein, increase compared to untreated control” value is 2.0 times. In addition, the “influence on hair-related cells” value in the data set on hair-related cells was “specifically influence hair-related cells”. For the same molecule, in data set [3], the “expression level of ALP mRNA, increase” value is 1.5 times; the “expression level of VCAN mRNA, increase” value was found to be 1.8 times; the “expression level of VEGF mRNA, increase” value stood at 1.3 times. Also, the increased hair length in the data set with human hair tissue (day 3) was determined as 0.84 mm. The molecule further returned an increased hair length in the data set with human hair tissue (day 6) of 1.43 mm.

Values taken from patent US20130089568A1, “HAIR GROWTH STIMULATOR BASED ON ECKLONIA CAVA EXTRACT, PREPARATION METHOD THEREOF, AND COSMETIC COMPOSITION CONTAINING THE SAME” (priority 2011, published 2013).
